Measurements taken from patent US20190076482A1, “ENHANCED ORGANOID FORMATION AND INTESTINAL STEM CELL RENEWAL” (THE JOHNS HOPKINS UNIVERSITY, priority 2016, published 2019).

Legend:
WT organoids = experiment: Wnt inhibitor treatment of WT control organoids; format: cell-based, mouse; conditions: for bud formation: controls
Excerpt: (§1) To better define the role of Hmga1 in regulating Wnt signaling, we cultured Hmga1 organoids in the absence of the Wnt receptor agonist, R-spondin 1 (R-spo1), which is essential for organoid formation in this culture system. R-spo1 is secreted by intestinal stromal cells and binds to the Lgr5 receptor to activate Wnt signaling. The inventors discovered a dramatic difference in the response of Hmga1 organoids to the absence of R-spo1 as compared to the WT controls: Hmga1 organoids continued to survive and proliferate after 2 weeks, while the WT organoids lost their 3D structural organization and ultimately died by day 5 (FIG. 9). […] To further test the link between Hmga1 and Wnt, we treated organoids with the Wnt inhibitors, C59 and IWP-2, both of which block Wnt-mediated transcription and cell proliferation by inhibiting porcupine (PORCN), a protein required for Wnt palmitoylation, secretion, and biological activity. […] The blunted response of Hmga1 organoids to Wnt inhibition further highlights the ability of Hmga1 to amplify Wnt signaling to maintain and support ISCs.
Organoid culture and replating assay. Mouse organoids were established and maintained from isolated crypts of the proximal small intestine as described previously^1-7. The basic culture medium (advanced Dulbecco's modified Eagle's medium/F12 supplemented with penicillin/streptomycin, 10 mmol/l HEPES, 13 Glutamax, 13 B27 [all from Life Technologies], and 1 mmol/l N-acetylcysteine [Sigma]) was supplemented with 50 ng/ml murine recombinant EGF (Peprotech), R-spondin 1 (1 μg/ml), and Noggin (10 ng/ml). Wnt inhibitors C59 and IWP-2 are commercially available (Abcam). Conditioned media was produced using HEK293T cells stably transfected with HA-mouse Rspo1-Fc (a gift from Calvin Kuo, Stanford University). Advanced DMEM/F12 supplemented with penicillin/streptomycin, 10 mmol/1 HEPES, and 13 Glutamax was conditioned for 1 week. For the replating assay, an equal number of organoids from each model were mechanically dispersed with a 10 mL pipet after 3-5 days in culture and replated using the conditions described above.

Hmga1 organoids = experiment: Wnt inhibitor treatment of Hmga1 organoids; format: cell-based, mouse
Excerpt: as §1
Organoid culture and replating assay. Mouse organoids were established and maintained from isolated crypts of the proximal small intestine as described previously^1-7. […]

Compound	organoid proliferation (WT organoids; WT controls, exposure to as little as 0.5 μM (FIG. 4f))	organoid survival (Hmga1 organoids; up to 2μM of C59 (FIG. 4f))	bud formation (WT organoids; 0.5 μM (FIG. 4f))	bud formation (WT organoids; 1 μM IWP-2 (FIG. 4f))	organoid survival and bud formation (Hmga1 organoids; 1 μM of IWP-2 (FIG. 4f))
Cc1cc(-c2ccc(CC(=O)Nc3ccc(-c4cccnc4)cc3)cc2)ccn1 [C59]	failed to proliferate	able to survive			
Cc1ccc2nc(NC(=O)CSc3nc4c(c(=O)n3-c3ccccc3)SCC4)sc2c1 [IWP-2]			few buds	no buds	survive and form buds
